The source of these data is patent US20030091620A1, “Transdermal drug delivery systems containing quaternary ammonium salts and methods of using the same” (priority 1999, published 2003).

Read-outs that look alike come from different tables or passages of the source.

In data set [1] the test system is E3 organism. Kind of data set: Zone of Inhibition testing of paper discs saturated with aqueous antimicrobial solutions. It is filed as cell-based, gram-positive, coagulase-negative cocci. The procedure: In this experiment, the effectiveness of various topical antimicrobial agents against the E3 organism was determined using Zone of Inhibition testing of paper discs saturated with aqueous antimicrobial solutions.

For data set [2], the system named is E3 organism. In words: Zone of Inhibition testing of antimicrobial-loaded transdermal matrix disks. It is filed as cell-based, gram-positive, coagulase-negative cocci. The procedure: These patches were cut into 1 cm^2 disks and subjected to Zone of Inhibition testing against the E3 organism with 24-hour incubation.
In the next experiment, placebo matrix patches (18 cm^2 area) were manufactured for a clinical wear study.

Data set [3] concerns bacterial count on the skin. The following applies: cited from earlier work.
The conditions of data set [4]: in vivo; cited from earlier work.
The nature of data set [5]: In vitro skin flux from PSA matrix patches and hydroalcoholic gels (modified Franz diffusion cells). As to conditions: 24-hour skin flux of the drug from Morstick 214 PSA patch with 1% BzthCl, relative to 0% enhancer.
Protocol: In vitro skin flux studies were conducted on epidermal membranes (stratum corneum and epidermis) obtained from whole human cadaver skin (epidermal membrane and dermis) by the heat-separation method of Kligman & Christopher, 88 Arch. […] This method consists of immersion of the whole skin for 60 seconds in water at 60° C., followed by mechanical separation of the epidermal and dermal layers. After separation, the epidermal membrane is stored in aluminum foil at −5° C. until use.
Skin flux experiments were conducted in two-compartment glass diffusion cells with a modified Franz design. The receiver compartment was filled with water or an aqueous buffer appropriate to maintain sink conditions for the drug. All receiver media included 0.02% (w/w) sodium azide to inhibit bacterial growth. […]
At predetermined sampling intervals, the entire volume of the receiver compartment solution was collected for drug quantification, and the receiver compartment was filled with fresh receiver solution, taking care to eliminate any air bubbles at the skin/solution interface.
Receiver solution samples were analyzed for drug content by HPLC with external standards of known drug concentration used for calibration. The cumulative amount of drug permeated per unit area at any time t (Qt, μg/cm^2) was determined according to the following equation: [formula] […]
The mark [6] stands for this setting: aqueous solution 2.0% w/w on 0.33 cm^2 paper disks, read-out: Zone of Inhibition.

On to benzalkonium chloride, for which the “Zone of Inhibition” value with E3 organism [1] (aqueous solution 0.4% w/w on 0.33 cm^2 paper disks) is given as 13 mm. In the data set with E3 organism [2] (0.4% w/w in DuroTak 87-2888 adhesive matrix disks, 24-hour incubation), the “Zone of Inhibition” value came to 15 mm. In data set [3], the “time required for the bacterial count on the skin to be decreased by 50%” value is reported as 7 min and the “time required to effect a 90% reduction of bacterial count” value is 25 min. For the same compound, in data set [4], the skin irritation result is “severe irritation”.

In the case of `CCO` [70% ethanol, ethanol], in data set [3], the “time required for the bacterial count on the skin to be decreased by 50%” value is 0.6 min and the “time required to effect a 90% reduction of bacterial count” value was 2 min.

For orientation: zone of inhibition means the extent of the growth-free halo in a diffusion test. For the compound `OCc1ccccc1` [Benzyl Alcohol], the zone of inhibition at 2 % strength in the data set with E3 organism [1] (setting [6]) amounted to 10 mm.

On to `Cl.O=C1CC2(CCCC2)CC(=O)N1CCCCN1CCN(c2ncccn2)CC1` [Buspirone HCI], for which, in data set [5], the “% Increase in Q24” value was 38 (21%).

`COC(=O)c1ccc(O)cc1` [Methyl Paraben]: the zone of inhibition at 2 % strength with E3 organism [1] (setting [6]) was 0 mm.

Turning to `O=C(O)c1ccccc1` [Benzoic Acid], the zone of inhibition at 2 % strength in the data set with E3 organism [1] turned out to be 10 mm. The zone of inhibition at 0.4 % strength with E3 organism [2] (24 h) is under 0 mm.
